Test results taken from PubChem BioAssay AID2060903 (Molecular Pharmacology Branch, DTP, NCI, 2025).
Blank lines part the entries; values can stand above or below the compound they belong to.

Test system: 377384-186-R-J1-PDC complex spheroid viability
Assay: Anticancer human tumor 377384-186-R-J1-PDC patient-derived pancreatic carcinoma cell line growth inhibition [RAS]
Conditions: for IC50: curve of first compound; for viability, T/C: stronger effect = lower value
From the text: RAS pathway inhibitors in Combinations in Complex Spheroids
A high-throughput screen of multi-cell type tumor spheroids was designed to identify active combinations of RAS pathway inhibitors and targeted small molecules. Complex spheroids include a stromal component modeled by human endothelial cells (HUVEC) and fibroblasts modeled by human mesenchymal stem cells (MSCs). The concentration ranges selected for each drug and investigational agent were based upon clinically achievable concentrations if the clinical Cmax of the agent was known.
Compounds. The drugs and investigational agents: abemaciclib (NSC768073), cobimetinib (NSC768068), divarasib (GDC6063, NSC841802), docetaxel (NSC628503), GDC-1971 (RLY-1971, NSC841576), gemcitabine (NSC613327), inavolisib (NSC800729), ipatasertib (NSC767898), KB-0742 (NSC834161), MRTX-1133 (NSC836407), osimertinib (NSC779217), RMC-4630 (NSC839698), RMC-6236 (NSC851965), RMC-6291 (NSC852671), Ro-3306 (NSC812927), sapanisertib (NSC764658), SN-38 (NSC673596), staurosporine (NSC755774), SY5609 (NSC837396), and tovorafenib (DAY101, NSC766906), were obtained from the National Cancer Institute (NCI) Developmental Therapeutics Program Chemical Repository. The FDA-approved anticancer drug set is available from the NCI Developmental Therapeutics Program. […] The stock solutions were prepared in dimethyl sulfoxide (DMSO, Sigma-Aldrich, St. Louis, MO, cat. D2650) at 800-fold the tested concentration and stored at -70 degrees C prior to their use. All drugs and investigational agents were tested over a range starting from a high concentration at or near the clinical Cmax and decreasing in half-log increments. If the clinical Cmax for an agent had not been determined, the highest concentration tested was 10 microM.
Cell Culture. All cells were maintained in an incubator at 37 degrees C and 5% CO2 with 95% humidity. The PDC lines were cultured according to standard operating procedures established by the NCI PDMR. All PDCs were thawed and cultured in Matrigel-coated flasks prepared with a working solution of 1X Ham's F-12 nutrient mix, without supplementation (Invitrogen, Waltham, MA, cat. 11765054), 100 U/mL penicillin-streptomycin (Invitrogen, cat. 15140122), and 2.5% Matrigel (Corning Inc., Corning, NY, cat. 354248) for the first three passages. The 362531-283-R-J2-PDC and 782815-120-R-J1-PDC lines were cultured in 6C/Colon 1B media, which includes advanced DMEM/F-12 (Thermo Fisher Scientific, cat. 12634028), 10 mM HEPES (Thermo Fisher Scientific, cat. 15630080), 1X GlutaMAX supplement (Thermo Fisher Scientific, cat. 35050061), 0.1 mg/mL primocin (InvivoGen, San Diego, CA, cat. ant-pm-2), 10% defined fetal bovine serum, heat inactivated (HyClone Laboratories Inc., Logan, UT, cat. SH30070.03HI), 50% L-WRN conditioned media (ATCC, cat. CRL-3276), 1.25 mM N-Acetyl-L-cysteine (Sigma-Aldrich, cat. A9165), 10 mM nicotinamide (Sigma-Aldrich, cat. N0636), 1X B-27 supplement (Thermo Fisher Scientific, cat. 17504044), 1X N-2 supplement (Thermo Fisher Scientific, cat. 17502048), 50 ng/mL human EGF (Thermo Fisher Scientific, cat. PHG0311), and 10 microM Y-27632 dihydrochloride (Tocris Bioscience, cat. 1254). The K12877-001-R-J1-PDC line was cultured in 6I media, which includes all 6C/Colon 1B media plus 10 ng/mL human FGF-10 (PeproTech, cat. 100-26), 1 ng/mL human FGF-2 (PeproTech, cat. 100-18B), 1 µM prostaglandin E2 (Tocris Bioscience, cat. 2296), […] hydrocortisone (Sigma-Aldrich, cat. H4001), and […] bovine insulin (Sigma-Aldrich, cat. I6634). The K86415-001-R-J1-PDC line was cultured in 6D media, which includes all 6C/Colon 1B media components minus the L-WRN conditioned media. The 485176-168-R4-J1-PDC was cultured in PANC media, which includes all 6C/Colon 1B media plus 100 ng/mL human FGF-10 (PeproTech, cat. 100-26), 500 nM SB-431542 (Selleckchem, cat. S1067), and 10 nM gastrin (Tocris Bioscience, cat. 3006). […]

[1] = second compound 0.0316 µM, first compound 0.0316 µM
[2] = second compound 0.0316 µM, first compound 0.1 µM
[3] = second compound 0.0316 µM, first compound 0.316 µM
[4] = second compound 0.0316 µM, first compound 1 µM
[5] = second compound 0.0316 µM, first compound 3.16 µM
[6] = second compound 0.0316 µM, first compound 10 µM
[7] = second compound 0.1 µM, first compound 0.0316 µM
[8] = second compound 0.1 µM, first compound 0.1 µM
[9] = second compound 0.1 µM, first compound 0.316 µM
[10] = second compound 0.1 µM, first compound 1 µM
[11] = second compound 0.1 µM, first compound 3.16 µM
[12] = second compound 0.1 µM, first compound 10 µM
[13] = second compound 0.316 µM, first compound 0.0316 µM
[14] = second compound 0.316 µM, first compound 0.1 µM
[15] = second compound 0.316 µM, first compound 0.316 µM
[16] = second compound 0.316 µM, first compound 1 µM
[17] = second compound 0.316 µM, first compound 3.16 µM
[18] = second compound 0.316 µM, first compound 10 µM
[19] = second compound 1 µM, first compound 0.0316 µM
[20] = second compound 1 µM, first compound 0.1 µM
[21] = second compound 1 µM, first compound 0.316 µM
[22] = second compound 1 µM, first compound 1 µM
[23] = second compound 1 µM, first compound 3.16 µM
[24] = second compound 1 µM, first compound 10 µM
[25] = second compound 3.16 µM, first compound 0.0316 µM
[26] = second compound 3.16 µM, first compound 0.1 µM
[27] = second compound 3.16 µM, first compound 0.316 µM
[28] = second compound 3.16 µM, first compound 1 µM
[29] = second compound 3.16 µM, first compound 3.16 µM
[30] = second compound 3.16 µM, first compound 10 µM
[31] = second compound 10 µM, first compound 0.0316 µM
[32] = second compound 10 µM, first compound 0.1 µM
[33] = second compound 10 µM, first compound 0.316 µM
[34] = second compound 10 µM, first compound 1 µM
[35] = second compound 10 µM, first compound 3.16 µM
[36] = second compound 10 µM, first compound 10 µM
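Note: spheroids exposed to compounds for seven days before readout.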

IC50 (second compound 0.0316 µM): < 31.6 nM
IC50 (second compound 0.1 µM): < 31.6 nM
IC50 (second compound 0.316 µM): < 31.6 nM
IC50 (second compound 1 µM): < 31.6 nM
IC50 (second compound 3.16 µM): < 31.6 nM
IC50 (second compound 10 µM): < 31.6 nM
SMILES: CC(C)NCC(C(=O)N1CCN(c2ncnc3c2C(C)CC3O)CC1)c1ccc(Cl)cc1 (stereo unspecified) + C#Cc1c(F)ccc2cc(O)cc(-c3ncc4c(N5CC6CCC(C5)N6)nc(OCC56CCCN5CC(F)C6)nc4c3F)c12
viability, T/C [1]: 22.6%
viability, T/C [2]: 18.8%
viability, T/C [3]: 18.2%
viability, T/C [4]: 16.9%
viability, T/C [5]: 11%
viability, T/C [6]: 9.91%
viability, T/C [7]: 10.2%
viability, T/C [8]: 10.5%
viability, T/C [9]: 8.54%
viability, T/C [10]: 9.68%
viability, T/C [11]: 6.47%
viability, T/C [12]: 3.99%
viability, T/C [13]: 4.76%
viability, T/C [14]: 4.25%
viability, T/C [15]: 5.02%
viability, T/C [16]: 3.37%
viability, T/C [17]: 3.87%
viability, T/C [18]: 3.34%
viability, T/C [19]: 3.41%
viability, T/C [20]: 17.1%
viability, T/C [21]: 2.83%
viability, T/C [22]: 2.26%
viability, T/C [23]: 1.72%
viability, T/C [24]: 1.05%
viability, T/C [25]: 2.28%
viability, T/C [26]: 2.34%
viability, T/C [27]: 1.81%
viability, T/C [28]: 1.19%
viability, T/C [29]: 1.15%
viability, T/C [30]: 0.64%
viability, T/C [31]: 1.35%
viability, T/C [32]: 1.29%
viability, T/C [33]: 0.78%
viability, T/C [34]: 0.79%
viability, T/C [35]: 0.61%
viability, T/C [36]: 0.18%

IC50 (second compound 0.0316 µM): < 0.316 nM
IC50 (second compound 0.1 µM): < 0.316 nM
IC50 (second compound 0.316 µM): < 0.316 nM
IC50 (second compound 1 µM): < 0.316 nM
IC50 (second compound 3.16 µM): < 0.316 nM
IC50 (second compound 10 µM): < 0.316 nM
SMILES: CC(C)n1nc(-c2ccc3oc(N)nc3c2)c2c(N)ncnc21 + C#Cc1c(F)ccc2cc(O)cc(-c3ncc4c(N5CC6CCC(C5)N6)nc(OCC56CCCN5CC(F)C6)nc4c3F)c12
viability, T/C (second compound 0.0316 µM, first compound 0.000316 µM): 23.1%
viability, T/C (second compound 0.0316 µM, first compound 0.001 µM): 17.9%
viability, T/C (second compound 0.0316 µM, first compound 0.00316 µM): 13.3%
viability, T/C (second compound 0.0316 µM, first compound 0.01 µM): 16.1%
viability, T/C [1]: 8.86%
viability, T/C [2]: 7.03%
viability, T/C (second compound 0.1 µM, first compound 0.000316 µM): 9.35%
viability, T/C (second compound 0.1 µM, first compound 0.001 µM): 10.2%
viability, T/C (second compound 0.1 µM, first compound 0.00316 µM): 8.78%
viability, T/C (second compound 0.1 µM, first compound 0.01 µM): 8.07%
viability, T/C [7]: 4.39%
viability, T/C [8]: 3.64%
viability, T/C (second compound 0.316 µM, first compound 0.000316 µM): 4.61%
viability, T/C (second compound 0.316 µM, first compound 0.001 µM): 4.79%
viability, T/C (second compound 0.316 µM, first compound 0.00316 µM): 3.5%
viability, T/C (second compound 0.316 µM, first compound 0.01 µM): 3.8%
viability, T/C [13]: 2.4%
viability, T/C [14]: 2.03%
viability, T/C (second compound 1 µM, first compound 0.000316 µM): 2.88%
viability, T/C (second compound 1 µM, first compound 0.001 µM): 2.78%
viability, T/C (second compound 1 µM, first compound 0.00316 µM): 2.19%
viability, T/C (second compound 1 µM, first compound 0.01 µM): 2.05%
viability, T/C [19]: 1.53%
viability, T/C [20]: 1.23%
viability, T/C (second compound 3.16 µM, first compound 0.000316 µM): 1.79%
viability, T/C (second compound 3.16 µM, first compound 0.001 µM): 2.07%
viability, T/C (second compound 3.16 µM, first compound 0.00316 µM): 2.15%
viability, T/C (second compound 3.16 µM, first compound 0.01 µM): 1.84%
viability, T/C [25]: 1.11%
viability, T/C [26]: 0.65%
viability, T/C (second compound 10 µM, first compound 0.000316 µM): 1.04%
viability, T/C (second compound 10 µM, first compound 0.001 µM): 0.81%
viability, T/C (second compound 10 µM, first compound 0.00316 µM): 0.8%
viability, T/C (second compound 10 µM, first compound 0.01 µM): 0.63%
viability, T/C [31]: 0.95%
viability, T/C [32]: 0.15%

IC50 (second compound 0.0316 µM): < 31.6 nM
IC50 (second compound 0.1 µM): < 31.6 nM
IC50 (second compound 0.316 µM): < 31.6 nM
IC50 (second compound 1 µM): < 31.6 nM
IC50 (second compound 3.16 µM): < 31.6 nM
IC50 (second compound 10 µM): < 31.6 nM
SMILES: CC(Nc1ccc2c(c1)OCCn1cc(N3C(=O)OCC3C(F)F)nc1-2)C(N)=O (stereo unspecified) + C#Cc1c(F)ccc2cc(O)cc(-c3ncc4c(N5CC6CCC(C5)N6)nc(OCC56CCCN5CC(F)C6)nc4c3F)c12
viability, T/C [1]: 15.8%
viability, T/C [2]: 14.3%
viability, T/C [3]: 7.76%
viability, T/C [4]: 6.8%
viability, T/C [5]: 5.84%
viability, T/C [6]: 4.21%
viability, T/C [7]: 6.67%
viability, T/C [8]: 6.43%
viability, T/C [9]: 3.06%
viability, T/C [10]: 2.11%
viability, T/C [11]: 1.21%
viability, T/C [12]: 0.7%
viability, T/C [13]: 3.3%
viability, T/C [14]: 2.54%
viability, T/C [15]: 1.59%
viability, T/C [16]: 0.81%
viability, T/C [17]: 0.63%
viability, T/C [18]: 0.43%
viability, T/C [19]: 2.75%
viability, T/C [20]: 1.42%
viability, T/C [21]: 0.85%
viability, T/C [22]: 0.69%
viability, T/C [23]: 0.44%
viability, T/C [24]: 0.27%
viability, T/C [25]: 1.42%
viability, T/C [26]: 0.91%
viability, T/C [27]: 0.56%
viability, T/C [28]: 0.32%
viability, T/C [29]: 0.39%
viability, T/C [30]: 0.32%
viability, T/C [31]: 0.95%
viability, T/C [32]: 0.23%
viability, T/C [33]: 0.14%
viability, T/C [34]: 0.17%
viability, T/C [35]: 0.45%
viability, T/C [36]: 0.11%
